# Source: a melting point compilation (Tetko et al.; mined from patent text by program, amines drawn as free bases though some values may be those of a salt)
row,SMILES,melting point [°C]
1,CCOC(=O)NS(=O)(=O)c1ccc2c(c1)C(=O)CO2,118 to 119
2,CCC12OC[C@@H](O1)[C@@H](O)C[C@H]2OC,43 to 44
3,CC(=O)SC[C@H]1CCCCCC[C@H](C(=O)O)NC1=O (relative stereo),144 to 145
4,O=c1n(CCCF)nnn1-c1cc(Oc2ncccn2)c(Cl)cc1F,111 to 113
5,O=CNNc1ccc([N+](=O)[O-])cc1,183 to 185
6,COC(=O)C(C#N)C(=O)c1snc(Cl)c1Cl (configuration not stated),119 to 122
7,Cc1ccc(-c2nccc(C)n2)cc1,80 to 81
8,CC(CS)C(=O)N1C(C(=O)O)CC2CCCCC21 (configuration not stated),141 to 142
9,COc1cc2[nH]cc(C3CN4CCC3CC4)c2cc1OC (configuration not stated),243 to 245
10,CSC1NC(N)=CC(=O)N1C (configuration not stated),255
11,Cc1ccc(N2Cc3ccccc3P2(=O)C(C)C)cc1 (configuration not stated),135 to 137
12,Cc1noc(-c2ncn3c2CN(C)C(=O)c2c(Cl)cccc2-3)n1,212 to 213
13,COC(=O)c1ccc(Cl)c(-n2nn[nH]c2=O)c1Cl,192 to 193
14,CCOC(=O)c1cn(CC)c2nc(N3CCC(NCC(C)=O)C3)c(F)cc2c1=O (configuration not stated),212 to 213
15,Cc1cc(O)cc(C)c1N=Cc1ccc(O)cc1O,193 to 197
16,Cc1ccc2c(c1)C(=O)N(CCO[N+](=O)[O-])CO2,76 to 78
17,CCC(Oc1cccc(C(F)(F)F)c1C)C1=NCCN1 (configuration not stated),120 to 122
18,CCCCN(CCCC)S(=O)(=O)c1ccc(Cl)c([N+](=O)[O-])c1,67 to 68
19,O=C1NC(=O)C2(CCOc3ccc(F)cc32)N1 (configuration not stated),239 to 241
20,O=C(c1ccc(Br)cc1)C1CCN(CCc2c[nH]c3ccccc23)CC1,178 to 180
21,COc1ccc(Nc2cc(C)nc(N)n2)cc1Cl,250

row,SMILES,melting point [°C]
1,CCCCCCCCCCCCCCCCCC(=O)Nc1cccc([N+](=O)[O-])c1,75 to 76
2,O=C1Nc2ccccc2C12CCNCC2,184 to 186
3,CC(C)(CCCCC(=O)CCCCC(C)(C)C(=O)O)C(=O)O,60 to 61.5
4,COCCOCCN1C(=O)C2(COc3cc4c(cc32)OCCO4)c2cc3c(cc21)OCCO3 (configuration not stated),146 to 148
5,CCSc1nc(N)nc2c1ncn2C1C=CC(CO)C1 (configuration not stated),123 to 125
6,NC(=O)C(Cl)(Cl)CC1(c2cc(Cl)cc(Cl)c2)CO1 (configuration not stated),130 to 133
7,CCN(C1CC(C)(C)Oc2ccc(OCCCCC(=O)NCCO)cc21)S(C)(=O)=O (configuration not stated),88 to 90
8,CC(=O)NCC1CN(c2ccc(N3CCC(C)(O)C(C)(C)C3)c(F)c2)C(=O)O1 (configuration not stated),114 to 116
9,COc1cc(OC)cc(OC(=S)N(C)C)c1,77 to 78
10,N#CCCNC(=S)C1=CC(CF)(CF)Oc2cc(Cl)c(Cl)cc21,154 to 155
11,CN(C)S(=O)(=O)c1nnc(N)s1,188 to 190
12,CCOC(=O)N=NC(=O)OCC,120 to 121
13,CCc1noc(-c2cn(-c3ncc(OC(C)C)cn3)cn2)n1,156 to 157
14,N#CC(CC(=O)c1ccc(Cl)cc1)C(N)=O (configuration not stated),160 to 161
15,COc1ccc2c(Cl)noc2c1Br,134 to 135
16,CCOC(=O)C1=C(COCc2nnn(CCNC(=NC#N)SC)n2)NC(C)=C(C(=O)OC)C1c1cccc(Cl)c1Cl (configuration not stated),78 to 80
17,O=C1C(O)SCN1c1cccc([N+](=O)[O-])c1 (configuration not stated),129 to 131
18,CN(C)C=C(C#N)C(=O)c1cc(F)c(F)c(F)c1F,149 to 151
19,Nc1ccnc(Cl)c1Br,146
20,CCCCCCCCCCCCNCC(O)CO (configuration not stated),75 to 76
21,CC(C)(C)OC(=O)N1CCN(C(=O)CCc2cccnc2)CC1,125 to 126

# More lines, now with the values ahead:
row,melting point [°C],SMILES
1,48 to 50,CC(C)CC=Cc1c(C(C)C)nc(C(C)C)c(CO)c1-c1ccc(F)cc1
2,268 to 270,COc1cc2[nH]c(N(C)Cc3cccc(N)c3)nc(=O)c2c(C)c1OC
3,215 to 216,O=S1(=O)CCN2CCCC(c3ccc(Oc4ccc(Cl)cc4)cc3)C2=N1 (configuration not stated)
4,150 to 151,Cn1ncc(/C=C/C(=O)Nc2ccc(CC(C)(C)C)cc2)c1-c1ccc(F)cc1
5,145 to 147,CCSc1nnc(CO)n1Cc1ccc(N)cc1
6,110,Cc1c(Cl)ccc(S(=O)(=O)N(CCc2ccccc2)CC(=O)NCC(=O)O)c1Cl
7,128 to 130,O=C(O)COc1cccc2c1CCc1sc(SCCC(c3ccccc3)c3ccccc3)nc1-2
8,218 to 219,CCOC(=O)[C@H](Cc1ccc(-c2c(C)n(C)c(=O)n(C)c2=O)cc1)NC(=O)c1c(F)cccc1F
9,151 to 153,O=Cc1cccc2c1nc(-c1c(F)cccc1F)n2Cc1c(F)cccc1F
10,295 to 296,O=C1Nc2ccccc2Nc2ncccc21
11,99 to 100,COc1ccc(-c2ccc(C=O)cc2)cc1
12,191,CS(=O)(=O)c1c(Cl)c2cccnc2n(Cc2ccccc2)c1=O
13,106,CCOC(=O)C1=C(C)NC(N)=C(C(=O)OC(C)C)C1c1ccccc1C(F)(F)F (configuration not stated)
14,259 to 261,N#Cc1c2ccccc2cc2c1sc1cccc(-c3cc(Br)c(OCC(=O)O)c(Br)c3)c12
15,213 to 214,COc1ccc(Cn2cc(C(=O)NCCN(C)C)c3nc4c(C)cccc4cc3c2=O)cc1OC
16,152 to 155,COc1ccc(CNc2nc(NCCCc3cccc(C(C)=O)c3)nc3ncccc23)cc1OC
17,82 to 84,CC(O)(CCO)c1ccc(-c2ccc(F)cc2F)cc1 (configuration not stated)
18,329 to 332,O=c1[nH]c2cc(Cl)ccc2c(O)c1-c1cccc([N+](=O)[O-])c1
19,74 to 75.5,COc1cccc(Cc2cc3ccccc3s2)c1
20,169 to 170,O=C(CCc1ccccc1)Nc1cc(-c2nnc(CCc3cccc(C(F)(F)F)c3)o2)ccn1

row,melting point [°C],SMILES
1,229 to 232,O=C(Nc1cccc2c(=O)cc(-c3nnn[nH]3)oc12)c1ccc2c(c1)CC(COCc1ccc(F)cc1)O2 (configuration not stated)
2,88 to 91,ClCc1cn(C(c2ccccc2)(c2ccccc2)c2ccccc2)cn1
3,222 to 224,Cc1cc(-c2nnc3c4ccccc4c(OCc4ccncn4)nn23)no1
4,187 to 191,O=C1Cc2cccc(Oc3ccccn3)c2N1
5,195 to 196,Clc1nc(OCc2ccccc2)c2[nH]cnc2n1
6,96 to 98,COc1ccc(Cc2cnc(N)nc2N)cc1OCCCNS(=O)(=O)c1ccc(NC(C)=O)cc1
7,53 to 54,C#CC1(OC(=O)NCc2ccccc2)CCN(CCC=C(c2ccc(F)cc2)c2ccc(F)cc2)CC1
8,153 to 156,CC(C)(C(=O)c1cccs1)C(=O)c1cccs1
9,130 to 131,CC(C)(C)C(=O)Nc1ccc(F)cc1-c1ccc(Cl)c(Cl)c1
10,159 to 161,Cc1[nH]c2ccc(CCN3CCCCC3)cc2c1C(=O)OCc1ccccc1
11,179 to 180,Cn1c(Cl)cnc1C(c1cc(F)ccc1F)S(=O)(=O)c1ccc(Cl)cc1 (configuration not stated)
12,93 to 103,CC=CCn1c(C)c(C)c2cnnc(OCc3ccc(F)cc3)c21
13,139 to 141,COc1cc2c(cc1OCCN(C)C)N(C(=O)c1ccc(-c3ccc(-c4noc(C)n4)cc3C)cc1)CCC2
14,90 to 91,CNC(=O)/C(=N/OC)c1ccccc1Oc1cc(C)cc(C)c1
15,168 to 170,CCOC(=O)c1cn(-c2ccccc2)c2occc2c1=O
16,109 to 112,O=C(Nc1ccc(-n2nc(C(F)(F)F)cc2Br)cc1)c1cccc(F)c1F
17,239 to 243,CC(=O)Nc1cccc2c1CN(c1ccc3c(ccn3C)c1)C2=O
18,199 to 201,Nc1ncnc2c1nc(Br)n2Cc1ccccc1
19,174 to 176,O=C(NCc1ccccc1Cl)c1cccnc1Oc1cccnc1
20,86 to 87,Cc1cc(C)n(Cc2ccc(OCc3nc(-c4ccccc4)oc3C)cc2)n1

row,melting point [°C],SMILES
1,216,CCN(CC)c1ccc(-c2cc(-c3ccc(C(=O)O)cc3)ccc2OCCO)cc1C(C)(C)C
2,123 to 125,Cc1onc(-c2ccccc2)c1C(=O)NCCCN1CCN(c2cc(F)ccc2OCC(F)(F)F)CC1
3,99 to 101,Fc1ccc(CCN2CCC(n3ccc4ccc(Br)cc43)CC2)cc1
4,179 to 181,CCCc1nc2c(N)nc3ccccc3c2n1CCCCN(OC)C(N)=O
5,151 to 152,CCOC(=O)c1nnc(C(=O)OCC)c2c1[nH]c1ccccc12
6,253 to 254,COc1ccc2c(=O)c3[nH]c(C(=O)O)cc(=O)c3oc2c1
7,81 to 85,CC(C)(C)OC(=O)NCC(=O)Nc1cccc(NC(=O)C(=O)N2CCC(Cc3ccccc3)CC2)c1
8,233 to 235,COC(=O)C=Cc1ccc(-c2ccc(O)cc2)cc1
9,192 to 193,CCOC(=O)c1ncn2c1c(C)nc1ccccc12
10,83 to 86,CNC(=O)[C@@H](C[C@H](O)[C@H](CC1CCCCC1)NC(=O)[C@H](Cc1cscn1)NC(=O)[C@@H](CC(=O)N1CCOCC1)Cc1ccccc1)C(C)C
11,178 to 180,O=C(O)C(Cc1ccccc1)NCC1c2c(c3ccccc3c3ccccc23)-c2c1c1ccccc1c1ccccc21 (configuration not stated)
12,191,O=C(Nc1c(OCc2ccccc2)cc(Br)cc1[N+](=O)[O-])C1CC1
13,169 to 171,CCCc1c(OCCCCCC(=O)c2cc(O)c(O)c(C(C)C)c2)ccc(C(=O)O)c1O
14,> 300,O=C(O)c1ccc(-c2cnc3c(c2)N(Cc2cc(F)ccc2F)C(=O)CN3)cc1
15,267 to 268,CC(C)(C)c1ccc(C(=O)Nc2cn3nc(N)ccc3n2)cc1
16,142 to 144,CC(C)(C)c1ccc(Cn2c(-c3ccc4c(c3)OCO4)nc3ccccc32)cc1
17,210 to 211,c1ccc(-c2ccnc(Nc3cccc(-n4ccnc4)c3)n2)nc1
18,82 to 83,CCOC(=O)c1cncc(OC)c1CCCOc1cccnc1Oc1cccc(Cl)c1
19,220,COc1cc2c(cc1OC)CN(CCCOc1ccc(NC(=O)c3cccc4c(=O)c5ccccc5[nH]c34)cc1)CC2
20,200,COc1ccc(O)c(C(=O)NCCc2ccc([N+](=O)[O-])cc2)c1
